Laboratory results as given in patent publication US20230091225A1, “Bifunctional chimeric heterocyclic compounds for targeted degradation of androgen receptors and use thereof” (HINOVA PHARMACEUTICALS INC., priority 2019, published 2023).
Read-outs that look alike come from different tables or passages of the source. Values belong to the compound of their own block, whether it stands above or below them.

Target: T1, androgen receptor (AR) (Homo sapiens, UniProt P10275)
T1 sequence (P10275 1-920): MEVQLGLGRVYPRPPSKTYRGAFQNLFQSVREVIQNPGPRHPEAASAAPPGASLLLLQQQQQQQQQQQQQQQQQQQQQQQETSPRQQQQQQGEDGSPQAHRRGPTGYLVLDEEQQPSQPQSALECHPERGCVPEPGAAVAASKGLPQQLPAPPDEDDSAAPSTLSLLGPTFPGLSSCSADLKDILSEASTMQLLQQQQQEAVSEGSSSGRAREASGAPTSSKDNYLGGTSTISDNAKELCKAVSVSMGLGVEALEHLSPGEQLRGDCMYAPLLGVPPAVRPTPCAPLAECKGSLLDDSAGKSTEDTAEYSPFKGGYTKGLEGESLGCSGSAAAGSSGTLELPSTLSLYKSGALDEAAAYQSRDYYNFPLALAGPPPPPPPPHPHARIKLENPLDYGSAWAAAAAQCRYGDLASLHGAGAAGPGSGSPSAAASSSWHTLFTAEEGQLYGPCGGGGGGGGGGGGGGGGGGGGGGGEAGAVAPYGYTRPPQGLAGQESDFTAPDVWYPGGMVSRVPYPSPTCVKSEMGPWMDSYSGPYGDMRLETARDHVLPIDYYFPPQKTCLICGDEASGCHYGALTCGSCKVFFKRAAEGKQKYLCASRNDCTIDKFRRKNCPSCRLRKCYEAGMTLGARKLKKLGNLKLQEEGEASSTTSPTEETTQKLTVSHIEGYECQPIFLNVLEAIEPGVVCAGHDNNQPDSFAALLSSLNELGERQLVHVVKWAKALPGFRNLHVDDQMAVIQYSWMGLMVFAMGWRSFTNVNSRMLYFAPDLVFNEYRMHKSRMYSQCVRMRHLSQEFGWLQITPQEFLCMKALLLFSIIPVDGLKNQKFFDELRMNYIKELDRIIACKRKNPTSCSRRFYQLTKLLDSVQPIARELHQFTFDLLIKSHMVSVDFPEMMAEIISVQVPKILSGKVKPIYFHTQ
Assay: Degradation of androgen receptor (AR) protein in VCaP cells by ELISA
Assay type: cell-based
Details: for Dmax: VCaP

[1] = AR degradation, VCaP cells, 16 h, ELISA, Table 3-1
[2] = AR degradation, VCaP cells, 16 h, ELISA, Table 3-1, read-out: DC50
[3] = AR degradation, VCaP cells, 16 h, ELISA, Table 3-2, read-out: DC50
[4] = AR degradation, VCaP cells, 16 h, ELISA, Table 3-2, read-out: Dmax (%)
[5] = AR degradation, VCaP cells, 16 h, ELISA, Table 3-1, read-out: Dmax (%)

Compound: CC1(C)[C@H](Oc2ccc(C#N)c(Cl)c2)C(C)(C)[C@H]1N1Cc2nc(C#CC3CCC(N4CC5(CN(c6ccc7c(c6)C(=O)N([C@@H]6CCC(=O)NC6=O)C7=O)C5)C4)CC3)ccc2C1=O (some centres unmarked) [Compound 351, 2-Chloro-4-((1r,3r)-3-(2-((4-(6-(2-(2,6-dioxopiperidin-3-yl)-1,3-dioxoisoindolin-5-yl)-2,6-diazaspiro[3.3]heptane-2-yl)cyclohexyl)ethynyl)-5-oxo-5,7-dihydro-6H-pyrrolo[3,4-b]pyridin-6-yl)-2,2,4,4-tetramethylcyclobutoxy) benzonitrile]
Dmax (%): ++++ (key: A: >80%; B: 79%-50%; C: 49%-25%; D: <25%)
DC50 (read-out: DC50): < 10 nM

Compound: 4-((1r,3r)-3-(2-((1r,4r)-4-(4-(2,6-dioxopiperidin-3-yl)-1,3-dioxoisoindolin-5-yl)piperazin-1-2-methoxybenzonitrile [Compound 400]
Dmax (%): ++++ (key: A: >80%; B: 79%-50%; C: 49%-25%; D: <25%)
DC50 (read-out: DC50): < 10 nM

Compound: N#Cc1ccc(O[C@H]2CC[C@H](NC(=O)c3cnc(N4CCC(CN5CCC6(CC5)CN(c5ccc7c(c5)C(=O)N(C5CCC(=O)NC5=O)C7=O)C6)CC4)cn3)CC2)cc1Cl (some centres unmarked) [Compound 241, N-((1r,4r)-4-(3-chloro-4-cyanophenoxy)cyclohexyl)-6-(4-((2-(2-(2-,2,6-dioxopiperidin-3-yl)-1,3-dioxoisoindolin-5-yl)-2,7-diazaspiro[3.5]nonan-7-yl)methyl)piperidin-1-yl)pyrazine-3-carboxamide]
DC50: < 10 nM
Dmax: > 80%

Dmax (%) [1]: ++++ (>80%)
DC50 [2]: < 10 nM
Compound: N#Cc1ccc(OC2CCC(NC(=O)c3ccc(N4CCC(CN5CCC6(CC5)CN(c5ccc7c(c5)CN(C5CCC(=O)NC5=O)C7=O)C6)CC4)nn3)CC2)cc1Cl (centres unmarked) [Compound 196, N-((1r,4r)-4-(3-chloro-4-cyanophenoxy)cyclohexyl)-6-(4-((2-(2-(2,6-dioxopiperidin-3-yl)-1-oxoisoindolin-5-yl)-2,7-diazaspiro[3.5]nonan-7-yl)methyl)piperidin-1-yl)pyridazine-3-formamide]

DC50 [3]: < 10 nM
Dmax [4]: > 80%
Compound: N#Cc1ccc(O[C@H]2CC[C@H](NC(=O)c3cnc(N4CCC(CN5CCC6(CC5)CN(c5cc7c(cc5F)C(=O)N(C5CCC(=O)NC5=O)C7)C6)CC4)nn3)CC2)cc1Cl (some centres unmarked) [Compound 417]

Compound: CC1(C)[C@H](Oc2ccc(C#N)c(Cl)c2)C(C)(C)[C@H]1N1Cc2nc(C#CC3CCC(N4CC5(CCN(c6ccc7c(c6)C(=O)N(C6CCC(=O)NC6=O)C7=O)C5)C4)CC3)ccc2C1=O (some centres unmarked) [Compound 368, 2-Chloro-4-((1r,3r)-3-(2-((4-(6-(2-(2,6-dioxopiperidin-3-yl)-1,3-dioxoisoindolin-5-yl)-2,6-diazaspiro[3.4]octane-2-yl)cyclohexyl)ethynyl)-5-oxo-5,7-dihydro-pyrrolo[3,4-b]pyridin-6-yl)-2,2,4,4-tetramethylcyclobutoxy) benzonitrile]
DC50 [2]: 100 to 300 nM
Dmax [5]: 40 to 60%

DC50 [2]: < 10 nM
Dmax [5]: > 80%
Compound: C[C@H]1CN(c2ccc(C(=O)N[C@H]3CC[C@H](Oc4ccc(C#N)c(Cl)c4)CC3)nn2)CCN1C[C@H]1[C@@H]2CN(c3cc4c(cc3F)C(=O)N(C3CCC(=O)NC3=O)C4=O)C[C@@H]21 (some centres unmarked) [Compound 168]

DC50 [3]: 100 to 300 nM
Dmax [4]: 60 to 80%
Compound: CC1(C)[C@H](Oc2ccc(C#N)c(Cl)c2)C(C)(C)[C@H]1N1Cc2nc(N3CCC(CN4CCN(c5ccc6c(c5)C(=O)N(C5CCC(=O)NC5=O)C6=O)CC4)CC3)cnc2C1=O (some centres unmarked) [Compound 385]

DC50 [2]: < 10 nM
Dmax [5]: > 80%
Compound: N#Cc1ccc(O[C@H]2CC[C@H](NC(=O)c3ccc(N4CC5(CC(N6CCN(c7cc8c(cc7F)C(=O)N(C7CCC(=O)NC7=O)C8=O)CC6)C5)C4)nn3)CC2)cc1Cl (some centres unmarked) [Compound 129, N-((1r,4r)-4-(3-chloro-4-cyanophenoxy)cyclohexyl)-6-(6-(4-(2-(2,6-dioxopiperidin-3-yl)-6-fluoro-1,3-dioxoisoindolin-5-yl)piperazin-1-yl)-2-azaspiro[3.3]heptan-2-yl)pyridazine-3-amide]

DC50 [2]: < 10 nM
Dmax [5]: > 80%
Compound: N#Cc1ccc(O[C@H]2CC[C@H](NC(=O)c3ccc(N4CCC(CN5CCC6(CC5)CN(c5cc7c(cc5F)C(=O)N(C5CCC(=O)NC5=O)C7=O)C6)CC4)cc3)CC2)cc1Cl (some centres unmarked) [Compound 191, N-((1r,4r)-4-(3-chloro-4-cyanophenoxy)cyclohexyl)-4-(4-((2-(2-(2,6-dioxopiperidin-3-yl)-6-fluoro-1,3-dioxoisoindolin-5-yl)-2,7-diazaspiro[3.5]nonan-7-yl)methyl)piperidin-1-yl)benzamide]

DC50 [3]: 100 to 300 nM
Dmax [4]: 60 to 80%
Compound: CCOc1cc(O[C@H]2C(C)(C)[C@H](N3Cc4nc(C#C[C@H]5CC[C@H](N6CCN(c7ccc8c(c7)C(=O)N(C7CCC(=O)NC7=O)C8=O)CC6)CC5)ccc4C3=O)C2(C)C)ccc1C#N (some centres unmarked) [Compound 430]

Compound: CC1(C)[C@H](Oc2ccc(C#N)c(Cl)c2)C(C)(C)[C@H]1N1Cc2nc(C#CC3CCC(N4CC5CC4CN5c4ccc5c(c4)C(=O)N(C4CCC(=O)NC4=O)C5=O)CC3)ccc2C1=O (single isomer, unassigned) [Compound 353, 2-Chloro-4-((1r,3r)-3-(2-((4-(5-(2-(2,6-dioxopiperidin-3-yl)-1,3-dioxoisoindolin-5-yl)-2,5-diazabicyclo[2.2.1]heptan-2-yl)cyclohexyl)ethynyl)-5-oxo-5,7-dihydro-6H-pyrrolo[3,4-b]pyridin-6-yl)-2,2,4,4-tetramethylcyclobutoxy) benzonitrile]
DC50 [2]: > 300 nM

DC50 [2]: 10 to 100 nM
Dmax [5]: 60 to 80%
Compound: C[C@@H]1CN(c2ccc(C(=O)N[C@H]3CC[C@H](Oc4ccc(C#N)c(Cl)c4)CC3)nn2)CCN1C[C@H]1[C@@H]2CN(c3cc4c(cc3F)C(=O)N(C3CCC(=O)NC3=O)C4=O)C[C@@H]21 (some centres unmarked) [Compound 265]

DC50 [2]: 10 to 100 nM
Dmax [5]: > 80%
Compound: N#Cc1ccc(O[C@H]2CC[C@H](NC(=O)c3cnc(N4CCN(C5CC6(CCN(c7cc8c(cc7F)C(=O)N(C7CCC(=O)NC7=O)C8=O)CC6)C5)CC4)cn3)CC2)cc1Cl (some centres unmarked) [Compound 277, N-((1r,4r)-4-(3-chloro-4-cyanophenoxy)cyclohexyl)-5-(4-(7-(2-(2,6-dioxopiperidin-3-yl)-6-fluoro-1,3-dioxoisoindolin-5-yl)-7-azaspiro[3.5]nonan-2-yl)piperazin-1-yl)pyrazine-2-carboxamide]

Compound: N#Cc1ccc(O[C@H]2CC[C@H](NC(=O)c3cnc(N4CC5(CCN(C6CCN(c7cc8c(cc7F)C(=O)N(C7CCC(=O)NC7=O)C8=O)CC6)C5)C4)cn3)CC2)cc1Cl (some centres unmarked) [Compound 82, N-((1r,4r)-4-(3-chloro-4-cyanophenoxy)cyclohexyl)-5-(6-(1-(2-(2,6-dioxopiperidin-3-yl)-6-fluoro-1,3-dioxoisoindolin-5-yl)piperidine-4-yl)-2,6-diazaspiro [3.4]octane-2-yl)pyrazine-2-carboxamide]
DC50 [2]: < 10 nM
Dmax: > 80%

DC50 [3]: 100 to 300 nM
Dmax [4]: > 80%
Compound: CC1(C)[C@H](Oc2ccc(C#N)c(Cl)c2)C(C)(C)[C@H]1N1Cc2nc(C#C[C@H]3C[C@H](N4CCN(c5cc6c(cc5F)C(=O)N(C5CCC(=O)NC5=O)C6=O)CC4)C3)cnc2C1=O (some centres unmarked) [Compound 391]

Dmax (%) [1]: ++++ (>80%)
DC50 [2]: < 10 nM
Compound: N#Cc1ccc(OC2CCC(NC(=O)c3cnc(N4CCN(C5CC6(CCN(c7ccc8c(c7)C(=O)N(C7CCC(=O)NC7=O)C8=O)CC6)C5)CC4)cn3)CC2)cc1Cl (centres unmarked) [Compound 278, N-((1r,4r)-4-(3-chloro-4-cyanophenoxy)cyclohexyl)-5-(4-(7-(2-(2,6-dioxopiperidin-3-yl)-1,3-dioxoisoindolin-5-yl)-7-azaspiro[3.5]nonan-2-yl)piperazin-1-yl)pyrazine-2-carboxamide]

Compound: CC1(C)[C@H](Oc2ccc(C#N)c(Cl)c2)C(C)(C)[C@H]1N1Cc2nc(C#CC3CCC(N4CC5CC4CN5c4ccc5c(c4)C(=O)N(C4CCC(=O)NC4=O)C5=O)CC3)cnc2C1=O (some centres unmarked) [Compound 389, 2-Chloro-4-((1r,3r)-3-(2-((4-(5-(2-(2,6-dioxopiperidin-3-yl)-1,3-dioxoisoindolin-5-yl)-2,5-diazabicyclo[2.2.1]heptan-2-yl)cyclohexyl)ethynyl)-5-oxo-5,7-dihydro-pyrrolo[3,4-b]pyrazine-26-yl)-2,2,4,4-tetramethylcyclobutoxy) benzonitrile]
DC50 [3]: > 300 nM
Dmax [4]: < 40%
